Marks after values point to notes of the source that are not given here.
Tests used:
human receptor GPR17 = target: T1, human receptor GPR17 (Homo sapiens, UniProt Q13304); assay: [35S]GTPγS binding assay on membranes of 1321N1 cells transfected with human GPR17; format: biochemical; details: for EC50 / Emax: [35S]GTPγS binding; for EC50: 1321N1 cells expressing human GPR17, mean±SEM of three experiments; for Emax: LTC4 at 100 nM, in % (unit assumed); for % Emax vs standard: efficacy relative to LTC4 set to 100%; for effect of antagonist on concentration-response curve of the compound: in presence of cangrelor or montelukast
T1 construct: expressed in transfected cells; host or cells: human 1321N1 astrocytoma cells, calcium phosphate transfection with pcDNA3.1; plasma membranes used
T1 sequence (Q13304 29-367 limits assumed): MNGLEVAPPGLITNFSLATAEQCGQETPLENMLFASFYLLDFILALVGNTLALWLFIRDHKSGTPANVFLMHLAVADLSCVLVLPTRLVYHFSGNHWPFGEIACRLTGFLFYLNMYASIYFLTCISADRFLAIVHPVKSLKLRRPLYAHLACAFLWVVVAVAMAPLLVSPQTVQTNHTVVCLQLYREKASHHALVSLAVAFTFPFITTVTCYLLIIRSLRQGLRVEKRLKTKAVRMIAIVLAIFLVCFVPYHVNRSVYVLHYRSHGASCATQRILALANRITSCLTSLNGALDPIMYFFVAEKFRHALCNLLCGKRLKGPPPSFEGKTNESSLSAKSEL
Procedure: A—The compounds according to the invention were evaluated for their functional activity on GPR17 using a well-known assay for GPCRs, the [^35S]GTPγS binding assay, which is based on the ability of the agonist to increase radioactive GTP binding when a GPCR is activated. The antagonist activity is evaluated according to the ability to counteract the increased [^35S]GTPγS binding induced by the LTC4 reference agonist.
The activation of GPCRs by agonists stimulates the dissociation of GDP from G-protein, thus increasing GTP binding in its place. This increase in GTP binding to G-protein can be quantified in vitro with [^35S]GTPγS. The effect of GPCR activation on [^35S]GTPγS binding is catalytic, because it increases the [^35S]GTPγS binding rate rather than [^35S]GTPγS binding equilibrium. […] For some GPCRs, the binding stimulated by the agonist (ie. the difference between GTP binding in the presence and absence of the agonist) increases with time, peaks and then falls to zero; optimal increases in [^35S]GTPγS binding induced by the agonist are often obtained before equilibrium is attained, rather than at equilibrium. […] The control and transfected cells were homogenised in 5 mM Tris-HCl and 2 mM EDTA (pH 7.4) and centrifuged at 48000 g for 15 min at 4° C. The resulting pellets (plasma membranes) were washed in 50 mM Tris-HCl and 10 mM MgCl2 (pH 7.4) and stored at −80° C. until use.
The Graph-Pad Prism program was used for the analysis and graphic presentation of the [^35S]GTPγS binding data. All the data are shown as the mean±SEM of three different experiments. The data were tested for statistical significance with the paired Student's t test or analysis of variance (one-way ANOVA), as appropriate. When significant differences were observed, the Newman-Keuls multiple comparison test (one-way ANOVA) was performed. A value of P<0.05 was considered significant.

[1] = [35S]GTPγS binding assay on 1321N1 cells transfected only with control vector pcDNA3.1; format: biochemical, human; details: cells transfected only with pcDNA3.1
Procedure: Human 1321N1 cells were cultured as described [Fumagalli et al., 2004, Biochem Pharmacol 68:113]. For the [^35S]GTPγS assay, 10^6 1321N1 cells were seeded on 75 cm^2 flasks and transfected by the calcium phosphate precipitation method, with the vector pcDNA3.1 containing the construct encoding for human receptor GPR17, and with the empty vector pcDNA3.1 as control [Fumagalli et al., 2004, Biochem Pharmacol 68:113].
The activation of GPCRs by agonists stimulates the dissociation of GDP from G-protein, thus increasing GTP binding in its place. This increase in GTP binding to G-protein can be quantified in vitro with [^35S]GTPγS. The effect of GPCR activation on [^35S]GTPγS binding is catalytic, because it increases the [^35S]GTPγS binding rate rather than [^35S]GTPγS binding equilibrium. Consequently, the [^35S]GTPγS binding assay is intrinsically a functional concentration-response curve, not an equilibrium binding assay [Lazareno, 1999, Methods Mol Biol 1106:231; Milligan, 2003, Trends Pharmacol Ski 24:87]. For some GPCRs, the binding stimulated by the agonist (ie. the difference between GTP binding in the presence and absence of the agonist) increases with time, peaks and then falls to zero; optimal increases in [^35S]GTPγS binding induced by the agonist are often obtained before equilibrium is attained, rather than at equilibrium. […]

[2] = test system: oligodendrocyte precursor cells (OPCs); assay: Pro-myelinating activity assay on oligodendrocyte precursor cell (OPC) cultures (MBP-positive cells); format: cell-based, Sprague-Dawley rat; details: 48 h after start of treatment
Procedure: The OPCs were cultured on plates containing 24 mm slides coated with poly-D,L-ornithine in Neurobasal medium with 2% of B27 supplement (Invitrogen), L-glutamine (2 mM) and enriched with growth factors PDGF and betaFGF (10 ng/ml) to promote proliferation. In order to promote differentiation, after 24 h, the culture medium was replaced with Neurobasal with 2% B27 without growth factors and with the addition of triiodothyronine T3 (400 ng/ml).
The ability of the agonists to promote myelination was evaluated by measuring the increase in the number of cells positive for the MBP marker present in the culture compared with the control treated with the carrier alone. In particular, 48 h after treatment with the agonists, the cells were fixed in 4% paraformaldehyde in 0.1 M PBS and stained by immunocytochemistry using an antibody specific for MBP. […] The slides were mounted with Dako Fluorescent Mounting Medium (Dako, Milan) on cover slips and analysed with an inverted optical microscope (AXIOVERT 200 M, Zeiss, Milan). The images were processed and acquired with Axiovision 4.4 software, in the rhodamine fluorescence channel for MBP. The effects of the treatments on OPC myelination were quantified by manual count using ImageJ software (Wayne Rasband, Research Services Branch of the National Institute of Mental Health of Bethesda, USA).

SMILES | EC50 (human receptor GPR17) | Emax (human receptor GPR17) | % Emax vs standard (human receptor GPR17) | also measured
COc1ccc(-n2c(SC(C)C(=O)Nc3ccccc3)nnc2-c2ccccc2OC)cc1 (centres unmarked) [(I), 2-[[5-(2-methoxyphenyl)-4-(4-methoxyphenyl)-4H-1,2,4-triazol-3-yl]thio]-N-phenylpropanamide] | 0.109 ± 0.028 nM | 145.6 ± 5.7 | 100.6% | effect of antagonist on concentration-response curve of the compound (human receptor GPR17): shifted to the right (increase in EC50), but no effect on efficacy was observed; effect of antagonist on concentration-response curve of the compound (human receptor GPR17; listed as I): reduction in the efficacy
COCCn1nnnc1C(c1cc2cc(OC)ccc2[nH]c1=O)N(CCc1ccccc1)Cc1ccccc1 (centres unmarked) [(II), 6-methoxy-3-[[1-(2-methoxyethyl)-1H-tetrazol-5-yl][(2-phenylethyl)(phenylmethyl)-amino]methyl]-2(1H)-quinolinone] | 3.67 ± 0.51 nM | 206.8 ± 8.3 | 142.8*** % | –
COc1ccc(N(C(=O)Cn2nnc3ccccc32)C(C(=O)NCC2CCCO2)c2ccc(F)cc2)cc1 (centres unmarked) [(IV), N-[1-(4-fluorophenyl)-2-oxo-2-[[(tetrahydro-2-furanyl)methyl]amino]ethyl]-N-(4-methoxyphenyl)-1H-benzotriazol-1-acetamide] | 2.27 ± 0.07 nM | 173.5 ± 0.5 | 119.8*** % | –
O=C(Nc1ccc(C(F)(F)F)cc1)N1CCC(c2nc(O)c3nnn(Cc4ccccc4Cl)c3n2)CC1 [(V), 4-[3-[(2-chlorophenyl)methyl]-6,7-dihydro-7-oxo-3H-1,2,3-triazole[4,5-d]pyrimidin-5-yl]-N-[4-(trifluoromethyl)phenyl]-1-piperidinecarboxamide] | 0.268 ± 0.009 nM | 161.5 ± 2.4 | 111.5** % | –
CCCCC/C=C\C\C=C/C=C/C=C/[C@@H](SC[C@H](NC(=O)CC[C@H](N)C(=O)O)C(=O)NCC(=O)O)[C@@H](O)CCCC(=O)O [LTC4, reference compound] | – | 144.8 ± 0.4 | 100% | response in [35S]GTPγS binding in control-vector cells [1]: unable to induce a response
CCCCC/C=C\C\C=C/C=C/C=C/[C@@H](SC[C@H](N)C(=O)O)[C@@H](O)CCCC(=O)O [LTE4] | – | – | – | pro-myelinating activity, in words (mature cells expressing MBP) [2]: increase the number of mature cells in culture expressing MBP
O=c1ccn([C@@H]2O[C@H](COP(=O)(O)OP(=O)(O)O)[C@@H](O)[C@H]2O)c(=O)[nH]1 [UDP] | – | – | – | pro-myelinating activity, in words (mature cells expressing MBP) [2]: increase the number of mature cells in culture expressing MBP
CSCCNc1nc(SCCC(F)(F)F)nc2c1ncn2[C@@H]1O[C@H](COP(=O)(O)OP(=O)(O)C(Cl)(Cl)P(=O)(O)O)[C@@H](O)[C@H]1O [cangrelor, reference compound] | – | – | – | type of antagonism on concentration-response curves of compound of formula (I) (human receptor GPR17; curves of compound (I) in presence of different concentrations of the antagonist (FIG. 1 C, D)): competitive antagonist

From US20150094348A1, “GPR17-MODULATING COMPOUNDS, DIAGNOSTIC AND THERAPEUTIC USES THEREOF” (Centro Cardiologico Monzino S.p.A., priority 2010, published 2015)
